Reference: patent US20180256673A1, “METHODS FOR TREATING FUNGAL INFECTIONS” (priority 2015, published 2018)
≈ marks a conversion by molar mass, not a printed value. Starred links: 1 amine or outer side, 2 acyl side, 3 side chain; linkers in the order of their positions; H or OH if unused. Positions of bridges follow the written chain, without caps; N, C: chain ends. Non-standard residues stand in square brackets, D forms with d. Residues, ends and D or L forms follow the SMILES beside them. *: point of attachment. Orn(4R-OH,5R-OCH2CH2NMe3+) = C[N+](C)(C)CCO[C@@H](N[*:3])[C@H](O)C[C@H](N[*:1])C(=O)[*:2]; hTyr(3S-OH,4S-OH,3'-OSO3H) = N[C@H](C(=O)O)[C@H](O)[C@@H](O)c1ccc(O)c(OS(=O)(=O)O)c1; pTerphenylCO(4''-OnC5H11) = CCCCCOc1ccc(-c2ccc(-c3ccc(C(=O)*)cc3)cc2)cc1; Orn(4R-OH,5R-OH) = O=C([C@H](C[C@@H](O)[C@@H](O)N[*:3])N[*:1])[*:2]; hTyr(3S-OH,4S-OH) = N[C@H](C(=O)O)[C@H](O)[C@@H](O)c1ccc(O)cc1; Pro(3S-OH,4S-Me) = C[C@H]1CN[C@H](C(=O)O)[C@H]1O; X1 = CCCCCOc1ccc(-c2cc(-c3ccc(C(=O)*)cc3)no2)cc1; Gln(3R-OH) = NC(=O)C[C@@H](O)[C@H](N)C(=O)O; Hyp = O=C(O)[C@@H]1C[C@@H](O)CN1

Legend:
[1] = test system: 1,3-β-D-glucan synthase from C. glabrata; test: Glucan synthase (GS) inhibition assay; conditions: for IC50: DPL50, WT; for GS activity after treatment with a high dose: F659del mutant GS, 10,000 ng/mL
[2] = test system: C. albicans ATCC 90028 and DPL22; test: MIC of strains used in mouse study (Table 3); conditions: Candida albicans
C. krusei = test: Antifungal susceptibility testing (CLSI M27-S4), WT and echinocandin-resistant isolates; conditions: 24 hr
Method: (§1) Antifungal susceptibility testing. Antifungal susceptibility testing was performed in triplicate for a collection of 95 Candida strains (20 C. albicans, 20 C. glabrata, 2 C. dubliniensis, 15 C. krusei, 19 C. parapsilosis, and 19 C. tropicalis) that included 30 isolates showing an echinocandin resistance (ER) phenotype (caspofungin-resistant) in accordance with the guidelines described in the Clinical and Laboratory Standards Institute (CLSI) document M27-S4. […] Stock solutions of the drugs were kept at −86° C.

C. glabrata = test: as above; conditions: for % of ER isolates with an MIC: C. glabrata ER isolates (n=11); for MIC median (range): 24 hr
Method: as §1

[3] = target: 1,3-β-D-glucan synthase from C. albicans (Candida albicans, UniProt O13428, S645P); test: Glucan synthase (GS) inhibition assay; conditions: IC50, DPL20; Fks1 S645P
1,3-β-D-glucan synthase from C. albicans (Candida albicans, UniProt O13428, S645P), sequence (O13428 entry or part of it S645P): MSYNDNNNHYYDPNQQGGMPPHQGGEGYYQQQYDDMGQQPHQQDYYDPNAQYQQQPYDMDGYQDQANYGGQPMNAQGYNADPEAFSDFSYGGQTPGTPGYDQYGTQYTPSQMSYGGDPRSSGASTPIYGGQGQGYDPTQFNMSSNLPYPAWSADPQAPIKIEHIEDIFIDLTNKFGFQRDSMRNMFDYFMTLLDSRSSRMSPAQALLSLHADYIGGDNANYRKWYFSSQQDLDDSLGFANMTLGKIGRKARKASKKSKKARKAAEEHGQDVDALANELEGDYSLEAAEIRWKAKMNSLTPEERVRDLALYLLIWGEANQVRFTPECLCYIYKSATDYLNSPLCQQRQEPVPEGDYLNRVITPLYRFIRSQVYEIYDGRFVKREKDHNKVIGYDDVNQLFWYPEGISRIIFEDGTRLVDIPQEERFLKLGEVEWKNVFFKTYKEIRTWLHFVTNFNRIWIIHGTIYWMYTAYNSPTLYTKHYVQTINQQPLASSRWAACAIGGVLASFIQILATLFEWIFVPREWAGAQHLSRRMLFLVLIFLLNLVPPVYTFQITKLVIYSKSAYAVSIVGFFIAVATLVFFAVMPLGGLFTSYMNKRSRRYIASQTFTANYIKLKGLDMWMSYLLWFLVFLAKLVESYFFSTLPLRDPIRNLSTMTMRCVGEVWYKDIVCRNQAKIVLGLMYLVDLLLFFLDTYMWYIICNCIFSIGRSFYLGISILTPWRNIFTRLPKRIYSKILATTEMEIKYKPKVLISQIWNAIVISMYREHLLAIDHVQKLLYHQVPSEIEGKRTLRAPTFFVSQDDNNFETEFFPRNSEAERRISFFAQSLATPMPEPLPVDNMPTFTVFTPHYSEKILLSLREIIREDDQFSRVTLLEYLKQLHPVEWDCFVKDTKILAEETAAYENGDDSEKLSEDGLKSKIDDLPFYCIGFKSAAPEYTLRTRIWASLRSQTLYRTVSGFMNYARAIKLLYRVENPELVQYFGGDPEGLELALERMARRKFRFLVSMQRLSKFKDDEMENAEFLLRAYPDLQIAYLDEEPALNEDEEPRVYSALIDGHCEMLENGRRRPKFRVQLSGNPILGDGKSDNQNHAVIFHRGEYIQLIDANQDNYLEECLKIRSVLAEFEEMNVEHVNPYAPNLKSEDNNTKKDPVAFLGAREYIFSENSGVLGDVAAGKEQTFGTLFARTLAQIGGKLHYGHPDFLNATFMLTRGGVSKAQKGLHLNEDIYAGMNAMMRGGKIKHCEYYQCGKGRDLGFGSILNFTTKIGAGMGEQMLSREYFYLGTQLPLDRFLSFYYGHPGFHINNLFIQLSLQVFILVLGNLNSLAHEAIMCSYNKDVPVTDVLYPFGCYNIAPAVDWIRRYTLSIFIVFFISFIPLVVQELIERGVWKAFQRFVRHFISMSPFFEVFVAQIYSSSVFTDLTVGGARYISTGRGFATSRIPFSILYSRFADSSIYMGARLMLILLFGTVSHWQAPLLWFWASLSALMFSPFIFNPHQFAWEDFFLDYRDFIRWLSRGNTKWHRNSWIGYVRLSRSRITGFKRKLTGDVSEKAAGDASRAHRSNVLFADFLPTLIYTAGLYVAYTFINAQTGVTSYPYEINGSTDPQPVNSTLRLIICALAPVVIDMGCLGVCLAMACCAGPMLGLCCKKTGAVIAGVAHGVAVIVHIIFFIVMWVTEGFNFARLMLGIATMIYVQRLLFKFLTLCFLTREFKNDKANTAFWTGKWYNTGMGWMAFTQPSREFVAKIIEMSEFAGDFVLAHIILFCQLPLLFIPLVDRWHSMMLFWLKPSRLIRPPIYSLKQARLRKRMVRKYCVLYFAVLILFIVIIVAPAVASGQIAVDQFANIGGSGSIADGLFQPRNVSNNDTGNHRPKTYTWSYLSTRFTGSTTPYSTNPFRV

[4] = test system: 1,3-β-D-glucan synthase from C. albicans; test: Glucan synthase (GS) inhibition assay
C. dubliniensis = test: Antifungal susceptibility testing (CLSI M27-S4), WT and echinocandin-resistant isolates; conditions: 24 hr
Method: as §1

[5] = test system: C. tropicalis CTO2, MMX 7255, MMX 7525; test: Time-kill assay in vagina-simulative medium pH 4.0 (Table 18); assay type: cell-based, Candida tropicalis
[6] = Solubility of test articles in vehicle, visual observation (Table 22); assay type: physicochemical; conditions: visual observation
Method: Test Articles. […] Amphotericin B and fluconazole were in powder form. Amphotericin B was dissolved in 0.9% NaCl. Fluconazole was dissolved in water (WFI: water for injection).

[7] = test system: C. glabrata CG01, ATCC 200918, MMX 7070; test: Time-kill assay in vagina-simulative medium pH 4.0 (Table 17); assay type: cell-based, Candida glabrata
[8] = test system: C. parapsilosis CP02, CP01, MMX 7370; test: Time-kill assay in vagina-simulative medium pH 4.0 (Table 19); assay type: cell-based, Candida parapsilosis
[9] = test system: C. albicans ATCC 44858, DPL001, R357; test: Time-kill assay in vagina-simulative medium pH 4.0 (Table 16); assay type: cell-based, Candida albicans
[10] = test system: azole-resistant C. albicans (R357); test: Immunosuppressed rat model of vulvovaginal candidiasis, vaginal CFU; assay type: in vivo, Candida albicans
[11] = test system: C. krusei ATCC 6258, ATCC 14243; test: Time-kill assay in vagina-simulative medium pH 4.0 (Table 20); assay type: cell-based, Candida krusei
[12] = Phase 1 dose-escalation trials, pharmacokinetics after IV infusion; assay type: in vivo, human
Method: PK was assessed using plasma and urine samples collected over 21 days. Safety and tolerability were assessed by adverse events (AEs), vital signs, physical exams, electrocardiograms (ECGs), and safety laboratory values up to 21 days after dosing.

C. albicans ATCC 44858 = test: MIC against C. albicans ATCC 44858 at pH 4; assay type: cell-based; conditions: Candida albicans, ATCC44858, pH 4
[13] = test system: Candida albicans (Strain R303); test: Dose-fractionation study in neutropenic ICR mice, kidney fungal burden (Table 24); conditions: 2 mg/kg as a single dose IP; 168 hours
[14] = test system: Aspergillus fumigatus (ATCC 13073); test: Neutropenic mouse model of disseminated aspergillosis, survival; assay type: in vivo; conditions: one dose; Compound 1 2 mg/kg IV or IP, AMB 2 mg/kg IP; 10 days; P<0.05
[15] = test system: Candida albicans (Strain R303); test: MIC of dose-fractionation strain
[16] = Pharmacokinetic-pharmacodynamic analyses, PK model free-drug plasma exposures; design: species or system mouse
Method: Pharmacokinetic-Pharmacodynamic Analyses. Using the data collected from the PK study, a PK model was developed in S-ADAPT. Using the developed PK model, concentration-time profiles and AUC0-168h values were computed for each dosing regimen administered in the dose-fractionation study. […] Relationships between the change in logio CFU from start of therapy and AUC0-168h were explored.

[17] = Pharmacokinetic study in healthy ICR mice, single IP dose; conditions: 1 to 16 mg/kg IP
Method: Pharmacokinetic Study. […] The following doses, at three mice per dose, were studied: 1, 4, and 16 mg/kg.

[18] = Modeling of total plasma concentrations versus MPC; conditions: IV administration of 50 mg; calculated by modeling of pharmacokinetic data
Murine protein binding = assay type: in vitro ADME; conditions: mouse, plasma
[19] = ATCC90028, ATCC 90028, Fks1p WT, Fks2p WT
[20] = ATCC90028, DPL22, Fks1p S645P/S
[21] = IV infusion, healthy human subjects

## CCCCCOc1ccc(-c2cc(-c3ccc(C(=O)N[C@H]4C[C@@H](O)[C@@H](O)NC(=O)[C@@H]5[C@@H](O)[C@@H](C)CN5C(=O)[C@H]([C@H](O)CC(N)=O)NC(=O)[C@H]([C@H](O)[C@@H](O)c5ccc(O)c(OS(=O)(=O)O)c5)NC(=O)[C@@H]5C[C@@H](O)CN5C(=O)[C@H]([C@@H](C)O)NC4=O)cc3)no2)cc1 [MCF, micafungin] (X1-[Orn(4R-OH,5R-OH)]T[Hyp][hTyr(3S-OH,4S-OH,3'-OSO3H)][Gln(3R-OH)][Pro(3S-OH,4S-Me)]; lactam 1-C)
[1]
  IC50: 0.000447 µg/mL (≈ 0.000352 µM)
  GS activity after treatment with a high dose: did not exhibit significant reductions in activity
[2]; [19]
  MIC: < 0.03 µg/mL
[2]; [20]
  MIC: 0.5 µg/mL
C. krusei; ER (4 isolates)
  MIC median (range): 1.00 (0.03-8) mg/L
C. krusei; WT (11 isolates)
  MIC median (range): 0.12 (0.03-0.25) mg/L
C. glabrata
  % of ER isolates with an MIC: 63%
C. glabrata; ER (11 isolates)
  MIC median (range): 0.50 (0.06-4) mg/L
C. glabrata; WT (9 isolates)
  MIC median (range): <0.03 (<0.03)^ mg/L
[3]
  IC50: 2010 nM
[4]; F641S mutant
  fold increase in IC50 compared to the WT: 100 fold
[4]; S645P mutant
  fold increase in IC50 compared to the WT: 144 fold
C. dubliniensis; ER (1 isolate)
  MIC median (range): 0.03 µg/mL (≈ 0.0236 µM)
C. dubliniensis; WT (1 isolate)
  MIC median (range): 0.03 µg/mL (≈ 0.0236 µM)

## OC(Cn1cncn1)(Cn1cncn1)c1ccc(F)cc1F [FLU, fluconazole]
[5]; C. tropicalis CT02
  Susceptibility to FLU (S/R): S
[5]; C. tropicalis MMX 7255
  Susceptibility to FLU (S/R): R
[5]; C. tropicalis MMX 7525
  Susceptibility to FLU (S/R): R
[6]; vehicle WFI, formulation 2 mg/mL
  Solubility: S
[7]; C. glabrata ATCC 200918
  Susceptibility to FLU (S/R): R
[7]; C. glabrata CG01
  Susceptibility to FLU (S/R): S
[7]; C. glabrata MMX 7070
  Susceptibility to FLU (S/R): R
[8]; C. parapsilosis CP01
  Susceptibility to FLU (S/R): R
[8]; C. parapsilosis CP02
  Susceptibility to FLU (S/R): S
[8]; C. parapsilosis MMX 7370
  Susceptibility to FLU (S/R): R
[9]; C. albicans ATCC 44858
  Susceptibility to FLU (S/R): S
[9]; C. albicans DPL001
  Susceptibility to FLU (S/R): R
[9]; C. albicans R357
  Susceptibility to FLU (S/R): R
[10]; oral 20 mg/kg once daily for three days, days 5 and 12
  reduction in vaginal CFU compared with no treatment control: < 1 log-fold
[11]; C. krusei ATCC 6258
  Susceptibility to FLU (S/R): R
[11]; C. krusei ATCC 14243
  Susceptibility to FLU (S/R): R

## CCCCCOc1ccc(-c2ccc(-c3ccc(C(=O)N[C@H]4C[C@@H](O)[C@@H](OCC[N+](C)(C)C)NC(=O)[C@@H]5[C@@H](O)[C@@H](C)CN5C(=O)[C@H]([C@@H](C)O)NC(=O)[C@H]([C@H](O)[C@@H](O)c5ccc(O)cc5)NC(=O)[C@@H]5C[C@@H](O)CN5C(=O)[C@H]([C@@H](C)O)NC4=O)cc3)cc2)cc1 [Compound 1] ({pTerphenylCO(4''-OnC5H11)}-[Orn(4R-OH,5R-OCH2CH2NMe3+)]T[Hyp][hTyr(3S-OH,4S-OH)]T[Pro(3S-OH,4S-Me)]; lactam 1-C)
[12]; 50-400 mg IV
  plasma exposures versus dose: dose-proportional plasma exposures
[12]; [21]
  apparent clearance: < 0.3 L/h
  urinary excretion: < 1%
[12]; plasma, IV infusion, healthy human subjects, read-out: half-life (t1/2)
  half-life: > 80 h
[6]; vehicle 10% DMSO/1% Tween 20 in 0.9% NaCl, formulation 0.3, 1 and 3 mg/mL
  Solubility: S
C. albicans ATCC 44858
  MIC: 0.25 µg/mL
[13]
  log10 CFU reduction from baseline: greater than 2 log10 CFU
[14]
  survival versus vehicle: significantly longer survival than vehicle
[1]
  IC50: 0.00257 µg/mL
  GS activity after treatment with a high dose: did not exhibit significant reductions in activity
[2]; [19]
  MIC: < 0.03 µg/mL
[2]; [20]
  MIC: 0.5 µg/mL
C. krusei; ER (4 isolates)
  MIC median (range): 0.50 (<0.03-4) mg/L
C. krusei; WT (11 isolates)
  MIC median (range): 0.03 (<0.03-0.06) mg/L
[15]
  MIC: 0.125 µg/mL
C. glabrata
  % of ER isolates with an MIC: 18%
C. glabrata; ER (11 isolates)
  MIC median (range): 1.00 (0.12-4) mg/L
C. glabrata; WT (9 isolates)
  MIC median (range): 0.06 (0.03-0.12) mg/L
[10]; a week later, 8 days after treatment end (day 12), once daily for 3 days, intravaginal 0.1 mL/rat (Compound 1 as 3% gel)
  reduction in vaginal CFU compared with no treatment control: > 3 log-fold
[10]; one day after treatment end (day 5), once daily for 3 days, intravaginal 0.1 mL/rat (Compound 1 as 3% gel)
  reduction in vaginal CFU compared with no treatment control: 3.8 log-fold
[16]; 2 mg/kg as a single dose
  Free-drug plasma AUC0-24: 65.4 ng·h/mL
[16]; 2 mg/kg total dose
  time free-drug plasma concentrations of single dose remain above those of the daily regimen: 48 h
  time free-drug plasma concentrations of single dose remain above those of the twice weekly regimen: 84 h
[16]; 2 mg/kg total, daily regimen
  Free-drug plasma AUC0-24: 9.48 ng·h/mL
[16]; 2 mg/kg total, twice weekly regimen
  Free-drug plasma AUC0-24: 30.3 ng·h/mL
[17]
  PK linearity over the dose range: linear PK
[3]
  IC50: 2150 nM
C. dubliniensis; ER (1 isolate)
  MIC median (range): 0.03 µg/mL
C. dubliniensis; WT (1 isolate)
  MIC median (range): 0.03 µg/mL
[18]
  total plasma concentration generated: > 16 µg/mL
Murine protein binding
  fraction unbound: 0.009
[11]; two C. krusei strains, all concentrations (2-128 μg/mL)
  time at which cidality (≥3-log reduction in CFU) was achieved: < 24 h
